# Earlier results as cited in patent publication US9669111B2, “Device for the diagnosis of inflammatory tissues in dental applications” (THOMMEN MEDICAL AG, priority 2012, dated 2017).
# Structures can show the parent of a compound that is named as a salt.
# Legend:
# [1] = tested on: human tongue; settings: for concentration sensed down to (taste recognition): human tongue, average human
# [2] = tested on: human volunteers (bitter taste); settings: reciprocal of the dilution barely noticed as bitter; reference for calibration
compound,measurement,setting,value
C=C[C@H]1C[N@@]2CC[C@H]1C[C@H]2[C@H](O)c1ccnc2ccc(OC)cc12 [Quinine sulfate],concentration sensed down to (taste recognition),[1],0.0004 mM
C=C[C@H]1C[N@@]2CC[C@H]1C[C@H]2[C@H](O)c1ccnc2ccc(OC)cc12 [quinine-HCl],bitter value,[2],"200,000"
C=C[C@H]1C[N@@]2CC[C@H]1C[C@H]2[C@H](O)c1ccnc2ccc(OC)cc12 [quinine],sensory recognition threshold,[1]; human,about 0.0004 mmol/L
O=C1NS(=O)(=O)c2ccccc21 [saccharin],concentration sensed down to (taste recognition),[1],0.02 mM
